Results on five compounds are retold here after patent US20160199369A1, “Extruded Immediate Release Abuse Deterrent Pill” (priority 2013, published 2016).

For data set [1] the following is noted: relative solubility, yes/no; cited from earlier work.
A short description of data set [2]: General solubility of exemplary components. The format is physicochemical. The conditions noted are these: 200 proof ethanol, filtered through 0.22 micrometer PTFE filter. An excerpt: The following table lists the relative solubility of exemplary components of a formulation. A number of different dyes are listed along with their solubility information taken from the various literature sources and tested experimentally (200 proof ethanol and filtered through a 0.22 micrometer PTFE filter).

In the case of `CCN(Cc1cccc(S(=O)(=O)[O-])c1)c1ccc(C(=C2C=CC(=[N+](CC)Cc3cccc(S(=O)(=O)[O-])c3)C=C2)c2ccccc2S(=O)(=O)[O-])cc1.[Na+].[Na+]` [FD&C Blue #1], in data set [1], the “Alcohol Solubility (Literature)” value is recorded as “Yes” and the “Water Solubility” value is “Yes”.
Consider `O=C1/C(=C2\Nc3ccc(S(=O)(=O)[O-])cc3C2=O)Nc2ccc(S(=O)(=O)[O-])cc21.[Na+].[Na+]` [FD&C Blue #2], for which, in data set [1], the “Alcohol Solubility (Literature)” value is “Yes” and the “Water Solubility” value is given as “Yes”. The “Alcohol Solubility (tested)” value in data set [2] is “Yes”.
In the case of `COc1cc(S(=O)(=O)[O-])c(C)cc1N=Nc1c(O)ccc2cc(S(=O)(=O)[O-])ccc12.[Na+].[Na+]` [FD&C Red #40], in data set [1], the “Alcohol Solubility (Literature)” value is recorded as “Yes” and the “Water Solubility” value is reported as “Yes”. The “Alcohol Solubility (tested)” value in data set [2] was “Yes”.
On to `O=C([O-])C1=NN(c2ccc(S(=O)(=O)[O-])cc2)C(=O)C1N=Nc1ccc(S(=O)(=O)[O-])cc1.[Na+].[Na+].[Na+]` (stereo not shown) [FD&C Yellow #5], for which, in data set [1], the “Alcohol Solubility (Literature)” value is “Yes” and the “Water Solubility” value is “Yes”. Also, the “Alcohol Solubility (tested)” value in data set [2] is recorded as “Yes”.
On to `COc1ccc2c3c1O[C@H]1C(=O)CC[C@@]4(O)[C@@H](C2)N(C)CC[C@]314.Cl` [Oxycodone HCl, reference compound], for which, in data set [1], the “Alcohol Solubility (Literature)” value is “Yes” and the “Water Solubility” value is reported as “Yes”.
